Results: patent publication US9247759B2, “Identification of human T2R receptors that respond to bitter compounds that elicit the bitter taste in compositions, and the use thereof in assays to identify compounds that inhibit (block) bitter taste in compositions and use thereof” (SENOMYX, INC., priority 2007, dated 2016)
pIC50: −log10 of the molar value. Read-outs that look alike come from different tables or passages of the source.

Molecular target: hT2R8 (Homo sapiens (Human), UniProt Q9NYW2)
Experiment: hT2R8 antagonist high-throughput FLIPR assay, stable cell line with G16g44, agonist andrographolide
Type: cell-based
Conditions: for IC50: unit uM, read-out: IC50 on hT2R08 bitter receptor
Method in brief: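 Antagonist screen: compounds co-applied with agonist andrographolide at 200 μM, a dose giving 70–80% of maximal hT2R8 activation. Fluorescence measured by FLIPR in a stable HEK293 line expressing both hT2R8 and the promiscuous G16g44 protein.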

[1] = read-out: IC50 on hT2R8 bitter receptor
[2] = table after Example 12-37, read-out: hT2R8 IC50
[3] = table after Example 10-97, read-out: hT2R8 IC50

Sequence of hT2R8 (Q9NYW2 whole entry): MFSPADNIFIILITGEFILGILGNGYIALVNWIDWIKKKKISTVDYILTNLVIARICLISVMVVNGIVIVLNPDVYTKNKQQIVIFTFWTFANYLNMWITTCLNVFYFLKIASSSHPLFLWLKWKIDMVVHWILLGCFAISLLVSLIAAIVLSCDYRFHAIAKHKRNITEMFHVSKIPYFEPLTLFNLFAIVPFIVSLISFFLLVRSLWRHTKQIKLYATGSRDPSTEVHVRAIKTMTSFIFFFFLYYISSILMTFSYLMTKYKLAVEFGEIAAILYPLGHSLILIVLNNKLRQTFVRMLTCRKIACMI

`COc1ccc(CN2C(=O)N(c3cnn(Cc4c(C)noc4C)c3)C(=O)C23CC3)cc1O` [Example 12-12, 6-(1-((3,5-dimethylisoxazol-4-yl)methyl)-1H-pyrazol-4-yl)-4-(3-hydroxy-4-methoxybenzyl)-4,6-diazaspiro[2.4]heptane-5,7-dione] was tested, and the pIC50 [1] was 7.70.
Work on `COc1cccc(CN(Cc2cccc(OC)c2OC)c2cnn(Cc3c(C)noc3C)c2)c1OC` [Example 4-64, N,N-bis(2,3-dimethoxybenzyl)-1-((3,5-dimethylisoxazol-4-yl)methyl)-1H-pyrazol-4-amine] yielded a pIC50 (Table A, read-out: hT2R8 IC50) of 4.90.
With `COCc1ccc(CN2C(=O)N(c3cnn(Cc4c(C)noc4C)c3)C(=O)C2(C)C)cc1` [Example 12-92, 3-(1-((3,5-dimethylisoxazol-4-yl)methyl)-1H-pyrazol-4-yl)-1-(4-(methoxymethyl)benzyl)-5,5-dimethylimidazolidine-2,4-dione] the pIC50 [2] was 6.55.
For `Cc1noc(C)c1Cn1cc(N2C(=O)C3Cc4cc(O)ccc4CN3C2=O)cn1` (stereo not drawn) [Example 13-3, 2-(1-((3,5-dimethylisoxazol-4-yl)methyl)-1H-pyrazol-4-yl)-8-hydroxy-10,10a-dihydroimidazo[1,5-b]isoquinoline-1,3(2H,5H)-dione], the pIC50 [1] was 7.52.
Compound `COc1ccc(OC)c(CN2C(=O)N(c3cnn(Cc4c(C)noc4C)c3)C(=O)C2(C)C)c1` [Example 12-54, 1-(2,5-dimethoxybenzyl)-3-(1-((3,5-dimethylisoxazol-4-yl)methyl)-1H-pyrazol-4-yl)-5,5-dimethylimidazolidine-2,4-dione] has a pIC50 [2] of 6.70.
Compound `COc1cccc(C(=O)Nc2nnn(Cc3c(C)noc3C)n2)c1` [Example 10-39, N-(2-((3,5-dimethylisoxazol-4-yl)methyl)-2H-tetrazol-5-yl)-3-methoxybenzamide] has a pIC50 [1] of 5.73.
With `Cc1noc(C)c1Cn1cc(NC(=S)Nc2cccc(C#N)c2)cn1` [Example 4-109, 1-(3-cyanophenyl)-3-(1-((3,5-dimethylisoxazol-4-yl)methyl)-1H-pyrazol-4-yl)thiourea] the pIC50 (Table A, read-out: hT2R8 IC50) was 6.11.
`Cc1noc(C)c1Cn1cc(N2C(=O)N(Cc3ccccc3F)C(C)(C)C2=O)cn1` [Example 12-45, 3-(1-((3,5-dimethylisoxazol-4-yl)methyl)-1H-pyrazol-4-yl)-1-(2-fluorobenzyl)-5,5-dimethylimidazolidine-2,4-dione] gave a pIC50 [2] of 6.96.
Work on `COc1ccc(OC)c(C(=O)Nc2cnn(Cc3c(C)noc3C)c2)c1` [Example 4-9, N-(1-((3,5-dimethylisoxazol-4-yl)methyl)-1H-pyrazol-4-yl)-2,5-dimethoxybenzamide] yielded a pIC50 [1] of 6.77.
Work on `Cc1noc(C)c1Cn1cc(NC(=O)c2ccncc2)cn1` [Example 4-50, N-(1-((3,5-dimethylisoxazol-4-yl)methyl)-1H-pyrazol-4-yl)isonicotinamide] yielded a pIC50 (Table A, read-out: hT2R8 IC50) of 5.34.
`Cc1cccc(C)c1CN1C(=O)N(c2cnn(Cc3c(C)noc3C)c2)C(=O)C1(C)C` [Example 12-85, 1-(2,6-dimethylbenzyl)-3-(1-((3,5-dimethylisoxazol-4-yl)methyl)-1H-pyrazol-4-yl)-5,5-dimethylimidazolidine-2,4-dione] gave a pIC50 [2] of 5.80.
With “1-((1,3-dimethyl-1H-pyrazol-4-yl)methyl)-3-(1-((3,5-dimethylisoxazol-4-yl)methyl)-1H-pyrazol-4-yl) imidazolidine-2,4-dione [Example 10-90]” the pIC50 [3] was 6.67.
`COc1cc(CC(=O)Nc2cnn(Cc3c(C)noc3C)c2)ccc1O` [Example 4-69, N-(1-((3,5-dimethylisoxazol-4-yl)methyl)-1H-pyrazol-4-yl)-2-(4-hydroxy-3-methoxyphenyl)acetamide] gave a pIC50 (Table A, read-out: hT2R8 IC50) of 5.33.
With `Cc1noc(C)c1Cn1cc(NC(=O)C2CCCCC2)cn1` [Example 4-61, N-(1-((3,5-dimethylisoxazol-4-yl)methyl)-1H-pyrazol-4-yl)cyclohexanecarboxamide] the pIC50 (Table A, read-out: hT2R8 IC50) was 5.66.
For `Cc1noc(C)c1Cn1cc(N2C(=O)CN(CCCc3ccccc3)C2=O)cn1` [Example 10-94, 3-(1-((3,5-dimethylisoxazol-4-yl)methyl)-1H-pyrazol-4-yl)-1-(3-phenylpropyl)imidazolidine-2,4-dione], the pIC50 [1] was 6.59 and the pIC50 [3] was 7.17.
Work on `Cc1noc(C)c1Cn1cc(NC(=O)c2ccc3[nH]nnc3c2)cn1` [Example 4-87, N-(1-((3,5-dimethylisoxazol-4-yl)methyl)-1H-pyrazol-4-yl)-1H-benzo[d][1,2,3]triazole-5-carboxamide] yielded a pIC50 (Table A, read-out: hT2R8 IC50) of 6.22.
For `Cc1noc(C)c1Cn1cc(NC(=O)c2ccc3ocnc3c2)cn1` [Example 4-72, N-(1-((3,5-dimethylisoxazol-4-yl)methyl)-1H-pyrazol-4-yl)benzo[d]oxazole-5-carboxamide], the pIC50 (Table A, read-out: hT2R8 IC50) was 5.59.
With `Cc1noc(C)c1Cn1cc(N2C(=O)NC(CCCc3ccccc3)C2=O)cn1` (stereo not drawn) [Example 10-46, 3-(1-((3,5-dimethylisoxazol-4-yl)methyl)-1H-pyrazol-4-yl)-5-(3-phenylpropyl)imidazolidine-2,4-dione] the pIC50 [1] was 6.77 and the pIC50 [3] was 6.32.
`COc1ccc(CN2C(=O)N(c3cnn(Cc4c(C)noc4C)c3)C(=O)C2(C)C)cc1OC` [Example 12-30, 1-(3,4-dimethoxybenzyl)-3-(1-((3,5-dimethylisoxazol-4-yl)methyl)-1H-pyrazol-4-yl)-5,5-dimethylimidazolidine-2,4-dione] gave a pIC50 [1] of 7.10.
For `Cc1noc(C)c1Cn1cc(N2C(=O)CN(CCc3cccc(Cl)c3)C2=O)cn1` [Example 10-82, 1-(3-chlorophenethyl)-3-(1-((3,5-dimethylisoxazol-4-yl)methyl)-1H-pyrazol-4-yl)imidazolidine-2,4-dione], the pIC50 [1] was 6.70 and the pIC50 [3] was 6.01.
Work on `COc1cccc(CN2C(=O)N(c3cnn(Cc4c(C)noc4C)c3)C(=O)C2(C)C)n1` [Example 12-40, 3-(1-((3,5-dimethylisoxazol-4-yl)methyl)-1H-pyrazol-4-yl)-1-((6-methoxypyridin-2-yl)methyl)-5,5-dimethylimidazolidine-2,4-dione] yielded a pIC50 [2] of 7.10.
`Cc1noc(C)c1Cn1cc(N2C(=O)CN(Cc3ccc(O)cc3)C2=O)cn1` [Example 10-12, 3-(1-((3,5-dimethylisoxazol-4-yl)methyl)-1H-pyrazol-4-yl)-1-(4-hydroxybenzyl)imidazolidine-2,4-dione] gave a pIC50 [3] of 7.37 and an IC50 of 0.06 µM.
`Cc1noc(C)c1Cn1cc(N2C(=O)N(Cc3ccc(C(=O)O)cc3)C(C)(C)C2=O)cn1` [Example 12-89, 4-((3-(1-((3,5-dimethylisoxazol-4-yl)methyl)-1H-pyrazol-4-yl)-5,5-dimethyl-2,4-dioxoimidazolidin-1-yl)methyl)benzoic acid] was tested, and the pIC50 [2] was 5.64.
`Cc1noc(C)c1Cn1cc(N2C(=O)NC(CC(=O)NCc3ccccc3)C2=O)cn1` (stereo not drawn) [Example 10-49, N-benzyl-2-(1-(1-((3,5-dimethylisoxazol-4-yl)methyl)-1H-pyrazol-4-yl)-2,5-dioxoimidazolidin-4-yl)acetamide] was tested, and the pIC50 [1] was 5.89 and the pIC50 [3] was 5.88.
`COC(=O)c1sccc1S(=O)(=O)Nc1cnn(Cc2c(C)noc2C)c1` [Example 4-104, methyl 3-(N-(1-((3,5-dimethylisoxazol-4-yl)methyl)-1H-pyrazol-4-yl)sulfamoyl)thiophene-2-carboxylate] was tested, and the pIC50 (Table A, read-out: hT2R8 IC50) was 5.90.
For `Cc1noc(C)c1Cn1cc(N2C(=O)CN(CCc3ccc(F)cc3)C2=O)cn1` [Example 10-84, 3-(1-((3,5-dimethylisoxazol-4-yl)methyl)-1H-pyrazol-4-yl)-1-(4-fluorophenethyl)imidazolidine-2,4-dione], the pIC50 [1] was 8.00 and the pIC50 [3] was 7.57.
Compound `Cc1noc(C)c1Cn1cc(N2C(=O)CN(CCc3ccccc3Cl)C2=O)cn1` [Example 10-81, 1-(2-chlorophenethyl)-3-(1-((3,5-dimethylisoxazol-4-yl)methyl)-1H-pyrazol-4-yl)imidazolidine-2,4-dione] has a pIC50 [1] of 6.60 and a pIC50 [3] of 6.61.
Work on `Cc1noc(C)c1Cn1cc(NC(=O)c2cccnc2)cn1` [Example 4-46, N-(1-((3,5-dimethylisoxazol-4-yl)methyl)-1H-pyrazol-4-yl)nicotinamide] yielded a pIC50 (Table A, read-out: hT2R8 IC50) of 5.98.
Compound `Cc1noc(C)c1Cn1cc(-n2c(=O)n(Cc3ccccc3)n(Cc3ccccc3)c2=O)cn1` [Example 10-70, 1,2-dibenzyl-4-(1-((3,5-dimethylisoxazol-4-yl)methyl)-1H-pyrazol-4-yl)-1,2,4-triazolidine-3,5-dione] has a pIC50 [1] of 6.10 and a pIC50 [3] of 5.74.
`Cc1noc(C)c1Cn1cc(N2C(=O)CN(Cc3cccc(C#N)c3)C2=O)cn1` [Example 10-25, 3-((3-(1-((3,5-dimethylisoxazol-4-yl)methyl)-1H-pyrazol-4-yl)-2,4-dioxoimidazolidin-1-yl)methyl)benzonitrile] was tested, and the pIC50 [3] was 6.00 and the IC50 was 1 µM.
With `CSc1ccccc1CN1CC(=O)N(c2cnn(Cc3c(C)noc3C)c2)C1=O` [Example 10-15, 3-(1-((3,5-dimethylisoxazol-4-yl)methyl)-1H-pyrazol-4-yl)-1-(2-(methylthio)benzyl)imidazolidine-2,4-dione] the pIC50 [3] was 7.80 and the IC50 was 0.03 µM.
Compound `Cc1noc(C)c1Cn1cc(N2C(=O)N(Cc3cccc(O)n3)C(C)(C)C2=O)cn1` [Example 12-72, 3-(1-((3,5-dimethylisoxazol-4-yl)methyl)-1H-pyrazol-4-yl)-1-((6-hydroxypyridin-2-yl)methyl)-5,5-dimethylimidazolidine-2,4-dione] has a pIC50 [2] of 6.36.
`Cc1noc(C)c1Cn1cc(N2CCCN(Cc3ccccc3)C2=O)cn1` [Example 9-5] gave a pIC50 [3] of 5.46.
In the case of `Cc1noc(C)c1Cn1cc(N2C(=O)N(Cc3ccccc3)C(C)(C)C2=O)cn1` [Example 12-67, 1-benzyl-3-(1-((3,5-dimethylisoxazol-4-yl)methyl)-1H-pyrazol-4-yl)-5,5-dimethylimidazolidine-2,4-dione], the pIC50 [2] was 6.49.
In the case of `COc1ccccc1CN1C(=O)N(c2cnn(Cc3c(C)noc3C)c2)C(=O)C1(C)C` [Example 12-31, 3-(1-((3,5-dimethylisoxazol-4-yl)methyl)-1H-pyrazol-4-yl)-1-(2-methoxybenzyl)-5,5-dimethylimidazolidine-2,4-dione], the pIC50 [1] was 7.10.
